Data taken from patent publication US20260209214A1, “LSD1 MODULATORS” (RECURSION PHARMACEUTICALS, INC., priority 2022, published 2026).
Counter-ions that a name gives are not always drawn.

target: Recombinant human LSD1 (Homo sapiens, UniProt O60341); assay: LSD1 inhibition assay (HTRF LSD1 Histone H3K4 mono-demethylation assay, me1->me0); assay type: biochemical; settings: 20 nM recombinant human LSD1, 95 nM H3K4(me1) biotinylated peptide, 15 min preincubation, 60 min at 25° C., read-out: LSD1 inhibition IC50 (nM range)
Protocol: LSD1 biochemical activity was measured using the HTRF® LSD1 Histone H3K4 mono-demethylation assay (me1->me0). Briefly, the enzymatic buffer was prepared by addition of 50 mM Tris-HCl (Sigma cat #T2663-IL), 50 mM NaCl (ThermoFisher cat #AM9759) and 0.01% Tween 20 (ThermoFisher cat #J20605.AP) in distilled water (final pH 8.5). This buffer was supplemented with 10 μM FAD (Fisher Scientific cat #11411838) and 1 mM DTT (Sigma cat #D0632). For the assay, H3K4(me1) biotinylated peptide substrate (Anaspec, cat #64355) was added to provide a final assay concentration of 95 nM. The streptavidin-XL665 (Cisbio cat #610SAXLA) and H3K4 me0-Eu(K) antibody-cryptate (Cisbio, cat #61 KAOKAD) detection reagents were mixed according to the manufacturer's instructions. Test compounds were diluted in DMSO in a series of 10 semi-log step doses; 10 nL of each compound dose were dispensed in 384 well plates. Recombinant human LSD1 was diluted into enzymatic buffer to provide a final assay concentration of 20 nM and added to the tested compounds for 15 minutes. The reaction was started by addition of the substrate and incubated at 25° C. for 60 minutes. The detection reagents were added, and the plate was incubated in the dark for 90 minutes. Fluorescence was measured on an Envision 2103 plate reader with optical setup for […] in the HTRF mode. The ratio of acceptor and donor emission signals was calculated for each well. Percent inhibition values were calculated from the HTRF ratios at different doses and fitted to a 4-parameter logistic curve to determine IC50 values. […]

SMILES | IC50 [nM]
Cc1c(CN2[C@@H]3CC[C@H]2[C@@H](N)C3)cccc1-c1ccc(C#N)c(F)c1 (racemic) [Example 306, 3'-{[(1S,2S,4R)-2-amino-7-azabicyclo[2.2.1]heptan-7-yl]methyl}-3-fluoro-2'-methyl-[1,1'-biphenyl]-4-carbonitrile] | 100 to 1000
CC1(c2c(CN3[C@@H]4CC[C@H]3[C@@H](N)C4)cccc2-c2ccc(C#N)c(F)c2)CC1 (racemic) [Example 307, 3'-{[(1S,2S,4R)-2-amino-7-azabicyclo[2.2.1]heptan-7-yl]methyl}-3-fluoro-2'-(1-methylcyclopropyl)-[1,1'-biphenyl]-4-carbonitrile] | 100 to 1000
N#Cc1ccc(-c2cc(CN3[C@@H]4CC[C@H]3[C@@H](N)C4)ccc2C2CC2)cc1F (racemic) [Example 309, 5'-{[(1S,2S,4R)-2-amino-7-azabicyclo[2.2.1]heptan-7-yl]methyl}-2'-cyclopropyl-3-fluoro-[1,1'-biphenyl]-4-carbonitrile] | 10 to 25
N#Cc1ccc(-c2cc(CN3[C@@H]4CC[C@H]3[C@@H](N)C4)ccc2OC(F)F)cc1F (racemic) [Example 310, 5'-{[(1S,2S,4R)-2-amino-7-azabicyclo[2.2.1]heptan-7-yl]methyl}-2'-(difluoromethoxy)-3-fluoro-[1,1'-biphenyl]-4-carbonitrile] | 10 to 25
N#Cc1ccc(-c2cc(CN3[C@@H]4CC[C@H]3[C@@H](N)C4)ccc2OCC2CC2)cc1F (racemic) [Example 311, 5'-{[(1S,2S,4R)-2-amino-7-azabicyclo[2.2.1]heptan-7-yl]methyl}-2'-(cyclopropylmethoxy)-3-fluoro-[1,1'-biphenyl]-4-carbonitrile] | 10 to 25
N#Cc1ccc(-c2cc(CN3[C@@H]4CC[C@H]3[C@@H](N)C4)ccc2OC2CCC2)cc1F (racemic) [Example 312, 5'-{[(1S,2S,4R)-2-amino-7-azabicyclo[2.2.1]heptan-7-yl]methyl}-2'-cyclobutoxy-3-fluoro-[1,1'-biphenyl]-4-carbonitrile] | 10 to 25
N#Cc1ccc(-c2cc(CN3[C@@H]4CC[C@H]3[C@@H](N)C4)ccc2COC(F)F)cc1F (racemic) [Example 313, 5'-{[(1S,2S,4R)-2-amino-7-azabicyclo[2.2.1]heptan-7-yl]methyl}-2'-[(difluoromethoxy)methyl]-3-fluoro-[1,1'-biphenyl]-4-carbonitrile] | 10 to 25
N#Cc1ccc(-c2cc(CN3[C@@H]4CC[C@H]3[C@@H](N)C4)ccc2-c2ccns2)cc1F (racemic) [Example 314, 5'-{[(1S,2S,4R)-2-amino-7-azabicyclo[2.2.1]heptan-7-yl]methyl}-3-fluoro-2'-(1,2-thiazol-5-yl)-[1,1'-biphenyl]-4-carbonitrile] | 10 to 25
N#Cc1ccc(-c2cc(CN3[C@@H]4CC[C@H]3[C@@H](N)C4)ccc2OCCC(F)F)cc1F (racemic) [Example 315, 5'-{[(1S,2S,4R)-2-amino-7-azabicyclo[2.2.1]heptan-7-yl]methyl}-2'-(3,3-difluoropropoxy)-3-fluoro-[1,1'-biphenyl]-4-carbonitrile] | < 10
N#Cc1ccc(-c2cc(CN3[C@@H]4CC[C@H]3[C@@H](N)C4)ccc2OCC(F)(F)F)cc1F (racemic) [Example 316, 5'-{[(1S,2S,4R)-2-amino-7-azabicyclo[2.2.1]heptan-7-yl]methyl}-3-fluoro-2'-(2,2,2-trifluoroethoxy)-[1,1'-biphenyl]-4-carbonitrile] | 10 to 25
COc1cnc(-c2ccc(CN3[C@@H]4CC[C@H]3[C@@H](N)C4)cc2-c2ccc(C#N)c(F)c2)cn1 (racemic) [Example 317, 5'-{[(1S,2S,4R)-2-amino-7-azabicyclo[2.2.1]heptan-7-yl]methyl}-3-fluoro-2'-(5-methoxypyrazin-2-yl)-[1,1'-biphenyl]-4-carbonitrile] | 10 to 25
N#Cc1ccc(-c2cccc(CN3[C@@H]4CC[C@H]3[C@H](N)C4)c2C2CC2)cc1F (racemic) [Example 319, 3'-{[(1S,2R,4R)-2-amino-7-azabicyclo[2.2.1]heptan-7-yl]methyl}-2'-cyclopropyl-3-fluoro-[1,1'-biphenyl]-4-carbonitrile] | 25 to 100
COCc1c(CN2[C@@H]3CC[C@H]2[C@@H](N)C3)cccc1-c1ccc(C#N)c(F)c1 (racemic) [Example 320, 3'-{[(1S,2S,4R)-2-amino-7-azabicyclo[2.2.1]heptan-7-yl]methyl}-3-fluoro-2'-(methoxymethyl)-[1,1'-biphenyl]-4-carbonitrile] | 100 to 1000
C[C@@H]1CCN(Cc2cccc(-c3ccc(C#N)c(F)c3)c2Cl)C[C@H]1N (racemic) [Example 331, 3'-{[(3S,4R)-3-amino-4-methylpiperidin-1-yl]methyl}-2'-chloro-3-fluoro-[1,1'-biphenyl]-4-carbonitrile] | > 1000
N#Cc1ccc(-c2cccc(C[C@H]3CNCCO3)c2-c2ccns2)cc1 (single isomer, unassigned) [Example 5, hydrochloride] | 10 to 25
N#Cc1ccc(-c2cc(F)cc(C[C@H]3CNCCO3)c2-c2ccns2)cc1F (single isomer, unassigned) [Example 6] | 10 to 25
N#Cc1ccc(-c2cccc(C[C@@H]3CNCCO3)c2-c2ccno2)cc1 (single isomer, unassigned) [Example 7] | 10 to 25
N#Cc1ccc(-c2cccc(C[C@@H]3CNCCO3)c2C2=CCOC2)cc1F (single isomer, unassigned) [Example 8] | < 10
N#Cc1ccc(-c2cccc(C[C@H]3CNCCO3)c2-c2ccno2)cc1 (single isomer, unassigned) [Example 9] | 10 to 25

SMILES | IC50 [nM]
N#Cc1ccc(-c2cccc(C[C@@H]3CNCCO3)c2-c2ccns2)cc1 (single isomer, unassigned) [Example 11] | 10 to 25
N#Cc1ccc(-c2cccc(C[C@@H]3CNCCO3)c2-c2ccno2)cc1F (single isomer, unassigned) [Example 13] | 10 to 25
N#Cc1ccc(-c2cc(F)cc(C[C@@H]3CNCCO3)c2-c2ccns2)cc1F (single isomer, unassigned) [Example 14] | 10 to 25
N#Cc1ccc(-c2cccc(C[C@H]3CNCCO3)c2-c2ccno2)cc1F (single isomer, unassigned) [Example 17] | 10 to 25
N#Cc1ccc(-c2cccc(C[C@H]3CNCCO3)c2C2=CCOC2)cc1F (single isomer, unassigned) [Example 22] | 10 to 25
N#Cc1ccc(-c2cccc(C[C@@H]3CNCCO3)c2-c2cncs2)cc1F (single isomer, unassigned) [Example 23] | 10 to 25
N#Cc1ccc(-c2cccc(C[C@@H]3CNCCO3)c2-c2ocnc2F)cc1F (single isomer, unassigned) [Example 26] | < 10
N#Cc1ccc(-c2cccc(C[C@H]3CNCCO3)c2-c2cncs2)cc1F (single isomer, unassigned) [Example 30] | 10 to 25
N#Cc1ccc(-c2cccc(C[C@H]3CNCCO3)c2-c2scnc2Cl)cc1F (single isomer, unassigned) [Example 31] | 25 to 100
N#Cc1ccc(-c2cccc(C[C@@H]3CNCCO3)c2-c2scnc2Cl)cc1F (single isomer, unassigned) [Example 37] | 10 to 25
N#Cc1ccc(-c2cc(C[C@@H]3CNCCO3)ccc2N2CCC2)cc1F (single isomer, unassigned) [Example 41] | 100 to 1000
N#Cc1ccc(-c2cc(C[C@H]3CNCCO3)ccc2N2CCC2)cc1F (single isomer, unassigned) [Example 54] | 100 to 1000
Cc1cc(NC[C@@H]2CNCCO2)c(Cl)c(-c2ccc(C#N)c(F)c2)c1 (single isomer, unassigned) [Example 87] | > 1000
N#Cc1ccc(-c2ccc(F)c(CN3[C@H]4CC[C@@H]3[C@H](N)C4)c2OC(F)F)cc1F (single isomer, unassigned) [Example 169] | 10 to 25
CN[C@@H]1C[C@@H]2CC[C@H]1N2Cc1cccc(-c2ccc(C#N)cc2)c1-c1ccns1 (single isomer, unassigned) [Example 173] | < 10
CN[C@@H]1C[C@@H]2CC[C@H]1N2Cc1cccc(-c2ccc(C#N)c(F)c2)c1C1CC1 (single isomer, unassigned) [Example 178] | 10 to 25
CN[C@H]1C[C@H]2CC[C@@H]1N2Cc1cccc(-c2ccc(C#N)cc2)c1-c1ccns1 (single isomer, unassigned) [Example 182] | < 10
N#Cc1ccc(-c2cccc(CN3[C@@H]4CC[C@H]3[C@@H](N)C4)c2OC(F)F)cc1F (single isomer, unassigned) [Example 183] | < 10
N#Cc1ccc(-c2cccc(CN3[C@H]4CC[C@@H]3[C@H](N)C4)c2C2CC2)cc1F (single isomer, unassigned) [Example 186] | 10 to 25
